Laboratory results as given in patent US9974771B2 (priority 2016, dated 2018).
Like-named read-outs stand apart in the source and are kept apart here.

Experiments:
[1] = tested on: LC3-II; type: cell-based, mouse
[2] = tested on: ScMEF cells
[3] = tested on: ScN2a cells
[4] = tested on: LC3-II; type: cell-based, mouse; remark: listed apart in the source
[5] = tested on: ScCAD5 cells
[6] = tested on: PrP^Sc in ScMEFs infected with prion strains 22L, Me7 or RML; type: cell-based, mouse; conditions: AR-12 3 μM, 72 hours, ScMEF strains 22L, FIG. 4A
[7] = tested on: PrP^Sc in persistently prion (strain 22L) infected ScN2a cells; type: cell-based, mouse
[8] = tested on: PrP^Sc in persistently prion (strain 22L) infected ScCAD5 cells; type: cell-based, mouse; conditions: AR-12 1-5 μM, 72 hours, ScCAD5 22L; FIG. 3A
[9] = tested on: PrP^Sc in Atg5-KO ScN2a cells (strain 22L); type: cell-based, mouse

Molecule | LC3-II induction, comparison of cell lines [1] | LC3-II levels [1] | XTT toxicity at concentrations used [2] | XTT toxicity at concentrations used [3] | LC3-II induction [4] | XTT toxicity at concentrations used [5] | PrP^Sc (+PK) [6] | reduction of PrP^Sc (+PK) ([7]; AR-12 3 μM, 3 days (72 hours), ScN2a 22L, vs DMSO, FIG. 2A) [%] | reduction of PrP^Sc (+PK) ([7]; AR-12 3 μM, 72 hours, wild-type ScN2a cells, FIG. 8B) [%] | PrP^Sc levels (+PK) [8] | reduction of PrP^Sc (+PK) [9] | reduction of PrP^Sc (+PK) ([7]; AR-14 2 μM, 72 hours, wild-type ScN2a cells, FIG. 8C) [%] | reduction of PrP^Sc (+PK) ([7]; AR-14 at a concentration of 2, 3 days (72 hours), ScN2a 22L, FIG. 5A) [%] | concentration at which already effective in reducing PrP^Sc ([7]; AR-14 tested at 0.5, 0.75 and 1.0 μM, 72 hours, ScN2a 22L, FIG. 5C) [µM]
NCC(=O)Nc1ccc(-n2nc(C(F)(F)F)cc2-c2ccc3c(ccc4ccccc43)c2)cc1 [AR-12, 2-amino-N-(4-(5-(phenanthren-2-yl)-3-(trifluoromethyl)-1H-pyrazol-1-yl)phenyl)acetamide] | lowest induction was found in CAD5 cells | time dependent and pronounced increase in LC3-II levels | non-toxic concentrations | non-toxic concentrations | about 2 fold | non-toxic concentrations | strongly reduced | 100 | ≥ 90 | reduced, although slightly less than in ScN2a cells | about 50% |  |  | 
NCCCC[C@H](N)C(=O)Nc1ccc(-n2nc(C(F)(F)F)cc2-c2ccc3c(ccc4ccccc43)c2)cc1 [AR-14] | lowest induction was found in CAD5 cells | time dependent and pronounced increase in LC3-II levels |  | non-toxic concentrations |  |  |  |  |  |  | about 50% | 100 | 100 | 0.75
bafilomycin A1 [BA1, reference compound] |  | highest expression level of LC3-II |  |  |  |  |  |  |  |  |  |  |  | 
